The source of these data is patent publication US12559718B2, “Diagnostic methods for t cell therapy” (Kite Pharma, Inc., priority 2015, dated 2026).

The structures appear in SMILES notation.

A short description of this data set: Phase 1/2 trial of anti-CD19 CAR+ T cells: adverse events and dose-limiting toxicity. Format: in vivo, human. The settings on record: 1 subject, onset at day 110 post anti-CD19 CAR+ T cell infusion. As for the experimental part:
Subjects who signed informed consent and met study eligibility were enrolled into the study and underwent leukapheresis to obtain PBMCs for the production of anti-CD19 CAR+ T cells. […] Some subjects were then treated with interleukin-2 (Group 1 only), 3 hours after the anti-CD19 CAR+ T cell infusion. Retreatment of a second dose of anti-CD19 CAR+ T cells was allowed if there was a response of partial response (PR) or complete response (CR) after the first infusion and then subsequent disease progression.
Three groups of subjects were enrolled. […] These subjects also received high dose interleukin-2 (IL-2) at 720,000 IU/kg (every 8 hours until 15 doses or toxicity precluded additional doses) after the anti-CD19 CAR+ T cell administration to stimulate their proliferation.
Group 3 includes 11 subjects, who have received a reduced conditioning regimen of cyclophosphamide at 300 mg/m^2 and fludarabine at 30 mg/m^2, both given for 3 concurrent days with no IL-2.
Overall safety summaries include all 32 treated subjects.

Take `Nc1nc(F)nc2c1ncn2[C@@H]1O[C@H](CO)[C@@H](O)[C@@H]1O` [fludarabine]: the “Neurologic adverse event considered by the investigator related to fludarabine” value was “grade 4 myelitis”.
